Values joined by “and” are separate entries in the source; they are usually repeats but may differ in a detail not shown here. Equal entries are not always repeated.
Key:
[1] = in vivo; cited from earlier work
[2] = tested on: substantia nigra DA and GABA neurons
WT and α6^L9′S mice = details: mouse, in vivo
LC neurons (α6* nAChRs) = assay type: cell-based, mouse
α6* nAChRs [3] = tested on: α6* nAChRs
Method: (§1) Neurotransmitter Release from Striatal Synaptosomes. After a mouse was sacrificed by cervical dislocation, its brain was removed and placed immediately on an ice-cold platform and brain regions were dissected. Tissues from each mouse were homogenized in 0.5 ml of ice-cold 0.32 M sucrose buffered with 5 mM HEPES, pH 7.5. A crude synaptosomal pellet was prepared by centrifugation at 12,000 g for 20 min. The pellets were resuspended in “uptake buffer”: 128 mM NaCl, 2.4 mM KCl, 3.2 mM CaCl2, 1.2 mM KH2PO4, 1.2 mM MgSO4, 25 mM HEPES, pH 7.5, 10 mM glucose. For DA uptake, buffer was supplemented with 1 mM ascorbic acid and 0.01 mM pargyline, whereas for GABA uptake, buffer was supplemented with 1 mM aminooxyacetic acid. For [^3H]GABA uptake, synaptosomes were incubated for 10 min at 37° C. […] For DA uptake, synaptosomes were incubated at 37° C. in uptake buffer for 10 min before addition of 100 nM [^3H]dopamine (1 μCi for every 0.2 ml of synaptosomes), and the suspension was incubated for an additional 5 min.
(§2) All experiments were conducted at room temperature using methods described previously (Nashmi et al., 2007; Salminen et al., 2007) with modifications for collection into 96-well plates. In brief, aliquots of synaptosomes (80 μl) were distributed onto filters and perfused with buffer (uptake buffer containing 0.1% bovine serum albumin and 1 μM atropine with 1 μM nomifensine (for DA release) or 0.1 μM NNC-711 [1-(2-(((diphenylmethylene)amino)oxy)ethyl)-1,2,5,6-tetrahydro-3-pyridinecarboxylic acid hydrochloride]) (for GABA release) at 0.7 ml/min for 10 min, or buffer for 5 min followed by buffer with 50 nM αCtxMII. […] Fractions (−0.1 ml) were collected for 4 min into 96-well plates every 10 sec starting from 1 min before stimulation, using a Gilson FC204 fraction collector with a multicolumn adapter (Gilson, Inc.; Middleton, Wis.). Radioactivity was determined by scintillation counting using a 1450 MicroBeta Trilux scintillation counter (Perkin Elmer Life Sciences-Wallac Oy; Turku, Finland) after addition of 0.15 ml Optiphase ‘SuperMix’ scintillation cocktail. Instrument efficiency was 40%.
(§3) Data were analyzed using SigmaPlot 5.0 for DOS. Perfusion data were plotted as counts per minute versus fraction number. Fractions collected before and after the peak were used to calculate baseline as a single exponential decay. The calculated baseline was subtracted from the experimental data. Fractions that exceeded baseline by 10% or more were sunmmed to give total released cpm and then normalized to baseline to give units of release [(cpm-baseline)/baseline]. Agonist dose response data were fit to the Hill equation.

α4β2* nAChRs = α4β2* nAChRs (Mus musculus, UniProt O70174+Q9ERK7)
Method: as §1, §2, §3

nAChRs [4] = molecular target: nAChRs (Mus musculus, UniProt O70174+Q9ERK7)
Method: as §1, §2, §3

[5] = in vivo; cited from earlier work; remark: listed apart in the source
α6* nAChRs [6] = molecular target: T1, α6* nAChRs (Mus musculus, UniProt Q9ERK7+Q9R0W9); assay: biochemical; assay type: biochemical
T1 construct: from tissue
Method: as §1, §2, §3

α6* nAChRs [7] = molecular target: T2, α6* nAChRs (Mus musculus, UniProt Q9ERK7+Q9R0W9, L280S); assay: biochemical; assay type: biochemical
T2 construct: from tissue
Method: as §1, §2, §3

α4β2* (non-α6) nAChRs = molecular target: T3, α4β2* (non-α6) nAChRs (Mus musculus, UniProt O70174+Q9ERK7); assay: biochemical; assay type: biochemical
T3 construct: from tissue; host or cells: striatal / olfactory tubercle synaptosomes of WT and α6L9′S mice
Method: as §1, §2, §3

[8] = tested on: αCtxMII-sensitive receptors (α6*)
[9] = molecular target: αCtxMII-resistant receptors (Mus musculus, UniProt O70174+Q9ERK7)
nAChRs [10] = assay type: biochemical, mouse
Method: as §1, §2, §3

α6^L9′S mice = details: mouse, in vivo
Method: Locomotor Activity. Mice used to study locomotion were eight to sixteen weeks old by the beginning of an experiment, and were back-crossed to C57BL/6 at least three times. […] Mouse horizontal locomotor activity was measured with an infrared photobeam activity cage system (San Diego Instruments; San Diego, Calif.). Ambulation events were recorded when two contiguous photobeams were broken in succession. Acute locomotor activity in response to nicotinic ligands or other agents was studied by recording ambulation events during four 15 sec intervals per minute for a designated number of minutes. For most experiments, groups of eight mice were placed in the activity cages (18×28 cm) and their baseline level of activity was recorded for eight minutes. Mice were removed from their cage, injected (100 μl per 25 g body mass), and returned to the cage within 15 sec. […] For generation of locomotor activity concentration-response relationship profiles, a group of mice was administered saline and, after five to eight days off, each successive dose of drug. […] For 48 h home cage monitoring, mice were isolated in their own cage and habituated to the test room and cage for 24 h. Following this, locomotor activity was recorded in 15 min intervals for 48 h.

[11] = molecular target: hypersensitive nicotinic receptors in α6L9′S VTA DA neurons (Mus musculus, UniProt Q9ERK7+Q9R0W9, L280S); assay type: cell-based
Sequence of hypersensitive nicotinic receptors in α6L9′S VTA DA neurons (Q9ERK7 whole entry, looked up, stated change not applied): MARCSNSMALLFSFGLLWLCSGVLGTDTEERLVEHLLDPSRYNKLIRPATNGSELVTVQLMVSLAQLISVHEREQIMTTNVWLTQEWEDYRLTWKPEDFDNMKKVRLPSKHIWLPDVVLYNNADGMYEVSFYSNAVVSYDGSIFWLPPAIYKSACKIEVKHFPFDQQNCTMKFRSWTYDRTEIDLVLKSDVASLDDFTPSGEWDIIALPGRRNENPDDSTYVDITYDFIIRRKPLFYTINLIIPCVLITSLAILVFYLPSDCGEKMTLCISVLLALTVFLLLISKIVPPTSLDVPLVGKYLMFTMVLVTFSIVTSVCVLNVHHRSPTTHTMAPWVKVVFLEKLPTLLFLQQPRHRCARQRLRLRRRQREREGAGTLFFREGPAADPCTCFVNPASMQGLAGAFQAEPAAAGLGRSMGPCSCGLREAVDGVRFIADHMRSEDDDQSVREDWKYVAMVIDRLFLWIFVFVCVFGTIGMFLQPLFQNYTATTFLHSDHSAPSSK
Sequence of hypersensitive nicotinic receptors in α6L9′S VTA DA neurons (Q9R0W9 whole entry, looked up, stated change not applied): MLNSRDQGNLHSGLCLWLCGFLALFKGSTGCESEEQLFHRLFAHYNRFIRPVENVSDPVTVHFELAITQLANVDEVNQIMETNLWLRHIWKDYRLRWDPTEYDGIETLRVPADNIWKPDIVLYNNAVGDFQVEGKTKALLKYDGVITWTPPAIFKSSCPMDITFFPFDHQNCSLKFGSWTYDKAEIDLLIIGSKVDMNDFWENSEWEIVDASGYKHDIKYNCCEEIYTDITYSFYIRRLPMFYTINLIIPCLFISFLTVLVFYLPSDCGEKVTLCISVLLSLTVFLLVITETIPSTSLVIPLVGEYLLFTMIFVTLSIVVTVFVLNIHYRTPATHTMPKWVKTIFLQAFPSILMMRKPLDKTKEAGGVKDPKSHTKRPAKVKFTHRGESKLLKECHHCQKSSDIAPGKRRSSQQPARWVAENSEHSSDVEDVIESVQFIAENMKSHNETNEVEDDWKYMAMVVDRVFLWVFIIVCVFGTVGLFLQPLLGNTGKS

Sequence of nAChRs (Mus musculus, UniProt O70174+Q9ERK7) (Q9ERK7 26-501): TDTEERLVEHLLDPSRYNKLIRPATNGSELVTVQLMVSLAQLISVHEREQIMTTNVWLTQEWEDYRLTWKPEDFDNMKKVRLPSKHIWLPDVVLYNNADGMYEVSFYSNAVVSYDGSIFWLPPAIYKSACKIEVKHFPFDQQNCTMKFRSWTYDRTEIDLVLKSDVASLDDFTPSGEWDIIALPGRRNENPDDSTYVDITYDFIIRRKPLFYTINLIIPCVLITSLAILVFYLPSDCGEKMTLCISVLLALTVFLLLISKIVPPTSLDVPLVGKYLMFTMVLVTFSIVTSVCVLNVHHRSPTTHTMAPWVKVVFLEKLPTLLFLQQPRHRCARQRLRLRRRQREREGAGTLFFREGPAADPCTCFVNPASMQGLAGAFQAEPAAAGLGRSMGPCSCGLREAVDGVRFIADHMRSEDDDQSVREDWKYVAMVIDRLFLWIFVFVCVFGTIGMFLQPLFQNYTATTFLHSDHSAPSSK
Sequence of nAChRs (Mus musculus, UniProt O70174+Q9ERK7) (O70174 31-629): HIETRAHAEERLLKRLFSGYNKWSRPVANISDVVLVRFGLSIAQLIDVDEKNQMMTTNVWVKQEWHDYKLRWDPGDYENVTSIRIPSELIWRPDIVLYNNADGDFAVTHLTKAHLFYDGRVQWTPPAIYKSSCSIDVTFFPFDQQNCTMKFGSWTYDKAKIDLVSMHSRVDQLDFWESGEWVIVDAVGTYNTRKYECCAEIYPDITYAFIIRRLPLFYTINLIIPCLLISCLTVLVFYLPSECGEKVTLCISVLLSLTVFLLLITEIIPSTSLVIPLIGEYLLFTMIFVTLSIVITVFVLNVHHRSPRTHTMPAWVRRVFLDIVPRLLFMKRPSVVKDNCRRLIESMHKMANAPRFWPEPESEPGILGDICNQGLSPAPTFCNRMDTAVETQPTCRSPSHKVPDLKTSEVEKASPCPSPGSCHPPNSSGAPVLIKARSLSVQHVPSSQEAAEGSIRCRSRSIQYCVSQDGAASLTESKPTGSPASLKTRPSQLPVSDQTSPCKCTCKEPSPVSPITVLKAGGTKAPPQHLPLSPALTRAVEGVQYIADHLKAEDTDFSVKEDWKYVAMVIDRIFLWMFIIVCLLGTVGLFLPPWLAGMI
T2 sequence (Q9ERK7 26-501, stated change not applied): as the sequence (Q9ERK7 26-501) above
T2 sequence (Q8BMN3 31-464, further chain): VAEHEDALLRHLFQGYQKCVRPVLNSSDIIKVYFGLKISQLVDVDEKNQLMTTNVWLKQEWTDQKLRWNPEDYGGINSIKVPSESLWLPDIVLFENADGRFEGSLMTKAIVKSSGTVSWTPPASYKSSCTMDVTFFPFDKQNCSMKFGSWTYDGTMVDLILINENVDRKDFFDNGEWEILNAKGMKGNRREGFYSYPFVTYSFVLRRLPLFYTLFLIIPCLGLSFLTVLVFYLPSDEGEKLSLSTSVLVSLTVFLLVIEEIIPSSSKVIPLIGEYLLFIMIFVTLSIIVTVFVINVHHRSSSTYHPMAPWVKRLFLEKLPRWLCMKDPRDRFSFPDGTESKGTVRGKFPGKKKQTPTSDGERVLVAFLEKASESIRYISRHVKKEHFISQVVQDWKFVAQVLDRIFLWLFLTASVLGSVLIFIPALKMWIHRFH
T2 sequence (Q9R0W9 31-494 L280S): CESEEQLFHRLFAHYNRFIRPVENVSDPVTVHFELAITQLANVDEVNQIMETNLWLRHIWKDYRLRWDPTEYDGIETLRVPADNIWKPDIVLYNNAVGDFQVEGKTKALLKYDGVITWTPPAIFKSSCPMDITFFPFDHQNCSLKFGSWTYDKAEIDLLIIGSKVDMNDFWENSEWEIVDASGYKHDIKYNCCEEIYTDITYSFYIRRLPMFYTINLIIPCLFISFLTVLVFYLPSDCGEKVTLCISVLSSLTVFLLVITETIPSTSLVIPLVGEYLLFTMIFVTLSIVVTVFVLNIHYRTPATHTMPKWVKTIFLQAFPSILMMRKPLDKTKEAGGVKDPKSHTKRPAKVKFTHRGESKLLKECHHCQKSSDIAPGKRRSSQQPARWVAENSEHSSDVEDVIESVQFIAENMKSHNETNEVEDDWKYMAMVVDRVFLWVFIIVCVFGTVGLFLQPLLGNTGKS
Sequence of α4β2* nAChRs (Q9ERK7 26-501): as the sequence (Q9ERK7 26-501) above
Sequence of α4β2* nAChRs (O70174 31-629): as the sequence (O70174 31-629) above
T3 sequence (Q9ERK7 26-501): as the sequence (Q9ERK7 26-501) above
T3 sequence (O70174 31-629): as the sequence (O70174 31-629) above
T1 sequence (Q9R0W9 31-494): as the sequence (Q9R0W9 31-494 L280S) above, with S250L counted along it
T1 sequence (Q8BMN3 31-464, further chain): as the sequence (Q8BMN3 31-464, further chain) above
T1 sequence (Q9ERK7 26-501): as the sequence (Q9ERK7 26-501) above
Sequence of αCtxMII-resistant receptors (O70174 31-629, change not shown): as the sequence (O70174 31-629) above
Sequence of αCtxMII-resistant receptors (Q9ERK7 26-501, change not shown): as the sequence (Q9ERK7 26-501) above

CN1CCCC1c1cccnc1 (single isomer, unassigned) [nicotine]
elimination half life [1]: ~7 min | average responses (peak current) in GABA neurons [2]: < 10 pA | responses in WT DA and GABA neurons [2]: undetectable | hypothermia response, WT versus α6^L9′S mice (WT and α6^L9′S mice): No difference was found | responses to locally applied nicotine in LC neurons (LC neurons (α6* nAChRs)): larger responses | EC50 (±SEM), MII-sensitive GABA release (α6* nAChRs [3]): no activity | Rmax (±SEM), MII-sensitive GABA release (α6* nAChRs [3]): no activity | Rmax (±SEM), MII-resistant GABA release (α4β2* nAChRs): 1.40 ± 0.08 and 1.26 ± 0.08 and 1.30 ± 0.10 | Rmax (±SEM), Total GABA release (nAChRs [4]): 1.64 ± 0.32 and 1.25 ± 0.06 and 1.22 ± 0.11 | concentration in the cerebrospinal fluid of smokers [5]: ≤ 500 nM | MII-sensitive DA release by 10 μM nic (positive control) (α6* nAChRs [6]): 3.19 and 1.63 | Rmax (±SEM), MII-sensitive DA release (α6* nAChRs [6]): 5.41 ± 0.54 and 7.03 ± 0.86 | MII-sensitive DA release by 10 μM nic (positive control) (α6* nAChRs [7]): 8.53 and 5.97 and 10.77 and 10.39 | MII-resistant DA release by 10 μM nic (positive control) (α4β2* (non-α6) nAChRs): 14.55 and 8.75 and 10.78 and 15.07 and 8.91 and 10.26 | αCtxMII-sensitive 86Rb+ efflux [8]: hypersensitive to nicotine relative to WT | firing rate in response to local application (VTA DA neurons): significant increase in the firing rate | αCtxMII-resistant 86Rb+ efflux [9]: unchanged | Rmax (±SEM), Total DA release (nAChRs [10]): 33.1 ± 2.1 and 36.0 ± 1.3 and 34.3 ± 1.7 and 20.9 ± 1.0 and 21.4 ± 0.9 and 20.8 ± 1.2 | Total DA release by 10 μM nic (positive control) (nAChRs [10]): 16.69 and 19.68 and 20.65 and 17.70 and 17.30 and 16.70 | tolerance or sensitization: change in locomotor behavior after repeated injections (α6^L9′S mice): did not produce any change in locomotor behavior | inward currents elicited by puffs of 1 μM [11]: larger than those seen in WT neurons at any concentration

Source: US20090100532A1, “TRANSGENIC MICE EXPRESSING HYPERSENSITIVE NICOTINIC RECEPTORS” (CALIFORNIA INSTITUTE OF TECHNOLOGY, priority 2007, published 2009)
